Laboratory results reported in article PMC3573846 (International journal of pharmaceutics, 2012).
Each block holds one compound with its values, some of them ahead of it.

Legend:
[1] = target: P-gp (MDR1), MDCKII-MDR1 transfected cells (Homo sapiens, UniProt P08183); test: Cellular accumulation of pazopanib in MDCKII-MDR1 vs WT cells; format: in vitro ADME; settings: 0.1 μM pazopanib, 60 min, no inhibitor
[2] = target: T1, Bcrp1, MDCKII-Bcrp1 transfected cells (Mus musculus, UniProt Q7TMS5); test: Cellular accumulation of pazopanib in MDCKII-Bcrp1 vs WT cells; format: in vitro ADME, murine; settings: 0.1 μM pazopanib, 60 min, no inhibitor
T1 sequence (Q7TMS5 1-657): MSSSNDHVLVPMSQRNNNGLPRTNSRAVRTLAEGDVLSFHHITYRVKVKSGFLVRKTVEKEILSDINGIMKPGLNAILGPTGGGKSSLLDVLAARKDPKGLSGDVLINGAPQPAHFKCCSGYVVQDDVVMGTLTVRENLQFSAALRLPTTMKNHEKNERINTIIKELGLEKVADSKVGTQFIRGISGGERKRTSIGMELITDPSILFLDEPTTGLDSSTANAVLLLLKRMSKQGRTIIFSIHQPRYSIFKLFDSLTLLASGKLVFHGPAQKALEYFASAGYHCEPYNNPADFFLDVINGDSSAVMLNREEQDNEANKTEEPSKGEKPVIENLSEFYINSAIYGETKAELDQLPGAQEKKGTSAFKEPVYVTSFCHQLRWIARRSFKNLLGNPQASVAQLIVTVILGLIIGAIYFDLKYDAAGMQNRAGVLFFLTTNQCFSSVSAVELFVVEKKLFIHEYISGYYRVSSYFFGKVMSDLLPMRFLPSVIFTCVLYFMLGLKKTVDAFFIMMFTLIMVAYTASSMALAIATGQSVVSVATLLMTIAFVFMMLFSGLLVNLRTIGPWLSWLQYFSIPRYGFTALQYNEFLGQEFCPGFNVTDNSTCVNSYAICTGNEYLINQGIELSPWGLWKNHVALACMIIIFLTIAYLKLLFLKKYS

[3] = Bi-directional transport across MDCK-WT monolayers; format: in vitro ADME, canine; settings: dog
P-gp (MDR1) = P-gp (MDR1) (Homo sapiens, UniProt P08183); test: Bi-directional transport across MDCK-MDR1 monolayers; format: in vitro ADME; settings: dog
Chain of P-gp (MDR1) (P08183 whole entry): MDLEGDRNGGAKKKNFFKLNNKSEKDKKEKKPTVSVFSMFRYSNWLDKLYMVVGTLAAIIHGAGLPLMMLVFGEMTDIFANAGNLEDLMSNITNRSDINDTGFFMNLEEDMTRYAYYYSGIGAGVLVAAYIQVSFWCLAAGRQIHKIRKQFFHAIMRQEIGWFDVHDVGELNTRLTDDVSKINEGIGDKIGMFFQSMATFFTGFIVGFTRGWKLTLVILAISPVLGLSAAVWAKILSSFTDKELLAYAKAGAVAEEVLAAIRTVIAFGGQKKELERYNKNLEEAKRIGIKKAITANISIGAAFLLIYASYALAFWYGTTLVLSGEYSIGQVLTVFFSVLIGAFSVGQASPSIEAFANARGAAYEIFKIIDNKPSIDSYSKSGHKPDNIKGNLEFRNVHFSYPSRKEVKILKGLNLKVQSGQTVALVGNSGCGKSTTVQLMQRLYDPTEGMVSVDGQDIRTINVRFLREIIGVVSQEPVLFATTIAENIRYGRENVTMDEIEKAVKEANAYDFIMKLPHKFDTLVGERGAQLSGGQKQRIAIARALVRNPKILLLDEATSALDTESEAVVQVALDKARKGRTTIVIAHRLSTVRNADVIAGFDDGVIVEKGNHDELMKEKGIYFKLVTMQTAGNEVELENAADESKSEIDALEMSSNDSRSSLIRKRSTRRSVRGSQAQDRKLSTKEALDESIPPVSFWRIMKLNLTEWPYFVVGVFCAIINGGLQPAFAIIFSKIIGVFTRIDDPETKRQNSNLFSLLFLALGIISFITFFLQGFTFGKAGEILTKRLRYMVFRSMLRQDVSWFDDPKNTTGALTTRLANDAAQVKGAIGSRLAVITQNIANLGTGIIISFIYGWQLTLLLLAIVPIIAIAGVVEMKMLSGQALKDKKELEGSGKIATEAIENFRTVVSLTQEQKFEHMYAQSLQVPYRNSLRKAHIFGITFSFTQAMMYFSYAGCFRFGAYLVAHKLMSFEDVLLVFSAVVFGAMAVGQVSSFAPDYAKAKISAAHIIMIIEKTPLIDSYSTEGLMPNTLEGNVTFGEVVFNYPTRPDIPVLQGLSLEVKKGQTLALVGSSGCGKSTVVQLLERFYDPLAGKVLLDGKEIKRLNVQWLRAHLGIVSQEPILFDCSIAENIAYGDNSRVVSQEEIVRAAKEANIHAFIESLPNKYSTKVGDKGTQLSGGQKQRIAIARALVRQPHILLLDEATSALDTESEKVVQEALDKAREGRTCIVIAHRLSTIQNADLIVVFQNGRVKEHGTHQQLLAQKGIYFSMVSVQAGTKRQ

[4] = target: P-gp (MDR1), MDCK-MDR1 cell monolayers (Homo sapiens, UniProt P08183); test: as above; format: in vitro ADME
Chain of P-gp (MDR1), MDCK-MDR1 cell monolayers (P08183 whole entry): as above

Bcrp1 = target: T2, Bcrp1 (Mus musculus, UniProt Q7TMS5); test: Bi-directional transport across MDCK-Bcrp1 monolayers; format: in vitro ADME, murine; settings: mouse, Efflux ratio, MDCK-Bcrp1, 5 μM pazopanib, no inhibitor
T2 sequence (Q7TMS5 1-657): T1 sequence (Q7TMS5 1-657)

Bcrp1 (murine) = target: T3, Bcrp1 (murine) (Mus musculus, UniProt Q7TMS5); test: as above; format: in vitro ADME; settings: dog
T3 sequence (Q7TMS5 1-657): T1 sequence (Q7TMS5 1-657)

[5] = target: T4, Bcrp1, MDCK-Bcrp1 cell monolayers (Mus musculus, UniProt Q7TMS5); test: as above; format: in vitro ADME, murine
T4 sequence (Q7TMS5 1-657): T1 sequence (Q7TMS5 1-657)

in vivo = settings: male, mouse, 5 mg/kg
[6] = Brain accumulation and plasma pharmacokinetics of pazopanib in FVB mice; settings: for half-life: 5 mg/kg
[7] = system: P-gp and Bcrp1 at the mouse BBB; settings: zosuquidar 25 mg/kg or Ko143 10 mg/kg i.v. 30 min prior to pazopanib 5 mg/kg i.v.; 60 min post dose
P-gp at BBB = settings: mouse, in vivo; cited from earlier work
[8] = in vitro MDCKII cell monolayers
[9] = brain, pazopanib 5 mg/kg i.v. + elacridar (GF120918) 10 mg/kg
[10] = brain, pazopanib alone, 5 mg/kg i.v. bolus
[11] = plasma, pazopanib 5 mg/kg i.v. + elacridar (GF120918) 10 mg/kg
[12] = plasma, pazopanib alone, 5 mg/kg i.v. bolus

Chain of P-gp (MDR1), MDCKII-MDR1 transfected cells (P08183 whole entry): as above

Pazopanib accumulation in MDR1 overexpressing cells relative to WT cells [1]: 60 % of WT cells
Pazopanib accumulation in Bcrp1 overexpressing cells relative to WT cells [2]: approximately 5 % of WT cells
Papp A→B at 240 min, 5 μM [3]: 2.92 ± 0.33 ×10⁻⁶ cm/s
Papp B→A at 240 min, 5 μM [3]: 3.1 ± 0.22 ×10⁻⁶ cm/s
efflux ratio at 240 min, 5 μM [3]: 1.06
Papp A→B at 240 min, 5 μM (P-gp (MDR1); MDCK-MDR1): 3.73 ± 0.17 ×10⁻⁶ cm/s
Papp B→A at 240 min, 5 μM (P-gp (MDR1); MDCK-MDR1): 6.3 ± 0.56 ×10⁻⁶ cm/s
efflux ratio at 240 min, 5 μM (P-gp (MDR1); MDCK-MDR1, Efflux ratio, MDCK-MDR1, 5 μM pazopanib, no inhibitor): 1.7
Efflux ratio ([4]; MDCK-MDR1, 5 μM pazopanib + 1 μM zosuquidar (LY)): 1.07
Substrate classification for P-gp [4, 8]: moderate substrate
efflux ratio at 240 min, 5 μM (Bcrp1): 47
Papp A→B at 240 min, 5 μM (Bcrp1 (murine)): 0.2 ± 0.04 ×10⁻⁶ cm/s
Papp B→A at 240 min, 5 μM (Bcrp1 (murine)): 9.71 ± 0.09 ×10⁻⁶ cm/s
efflux ratio at 240 min, 5 μM (Bcrp1 (murine); with Ko143 200 nM, Efflux ratio, MDCK-Bcrp1, 5 μM pazopanib + 200 nM Ko143): 1.35
Efflux ratio ([5]; MDCK-Bcrp1, 5 μM pazopanib, no inhibitor): 47.1
Substrate classification for Bcrp1 [5, 8]: high affinity substrate
k el (in vivo; FVB wild type, brain, iv): 0.000103 s⁻¹
Kp (in vivo; FVB wild type, brain/plasma, iv): 0.015
Vd (in vivo; FVB wild type, plasma, iv): 0.286 L/kg
clearance (in vivo; FVB wild type, plasma, iv): 2.38 mL/min/kg
k el (in vivo; FVB wild type, plasma, iv): 0.000139 s⁻¹
concentration at 15 min (in vivo; FVB, brain, intravenous): 293 ± 52 ng/g
concentration at 30 min (in vivo; FVB, brain, intravenous): 157 ± 2 ng/g
concentration at 60 min (in vivo; FVB, brain, intravenous): 95 ± 11 ng/g
half-life (in vivo; FVB, brain, iv): 1.9 h
Kp at 30 min (in vivo; FVB, brain/plasma, intravenous): 0.0113 ± 0.005
Kp at 60 min (in vivo; FVB, brain/plasma, intravenous): 0.009 ± 0.001
half-life (in vivo; FVB, plasma, iv): 1.4 h
AUC (0 → tlast) [6, 9]: 0.042 ± 0.003 mg·min/mL
λz [6, 9]: 0.25 h⁻¹
AUC (0 → tlast) [6, 10]: 0.020 ± 0.001 mg·min/mL
half-life [6, 10]: 1.89 h
AUC (0 → tlast) [6, 11]: 1.029 ± 0.071 mg·min/mL
Volume of distribution [6, 11]: 0.39822 L/kg
clearance [6, 11]: 2.49 mL/min/kg
λz ([6]; plasma, pazopanib 5 mg/kg i.v. + elacridar (GF120918) 10 mg/kg i.v. 30 min prior): 0.38 h⁻¹
AUC (0 → tlast) [6, 12]: 1.356 ± 0.043 mg·min/mL
half-life [6, 12]: 1.39 h
SMILES: Cc1ccc(Nc2nccc(N(C)c3ccc4c(C)n(C)nc4c3)n2)cc1S(N)(=O)=O [Pazopanib]

SMILES: COc1ccc2c3c([nH]c2c1)[C@H](CC(C)C)N1C(=O)[C@H](CCC(=O)OC(C)(C)C)NC(=O)[C@@H]1C3 [Ko143]
Effect on pazopanib brain concentration [7]: did not significantly alter

SMILES: O[C@@H](COc1cccc2ncccc12)CN1CCN([C@@H]2c3ccccc3[C@@H]3[C@H](c4ccccc42)C3(F)F)CC1 [zosuquidar]
Enhanced brain penetration of paclitaxel upon co-administration (P-gp at BBB): ~ 5.6 fold
Effect on pazopanib brain concentration [7]: did not significantly alter
